According to PubChem BioAssay (NCI):
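Test compounds were applied to cells in 96-well plates for 48 hours at 5 doses. Abbreviation: GI50, concentration required for 50% inhibition of growth. TGI: total growth inhibition.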 Where a SMILES comes first, the peptide text is derived from it. [ ]: non-standard residue; d: D form. The star is where a group is joined. ξ: configuration not given here. ξF = NC(Cc1ccccc1)C(=O)O; Cbz = O=C(OCc1ccccc1)*; Aib = CC(C)(N)C(=O)O

What was measured:
Experiment in all cases: NCI-60 cell line screen, 48 h
SK-MEL-2 melanoma = test system: SK-MEL-2 melanoma
SF-268 CNS = test system: SF-268 CNS
HL-60(TB) leukemia = test system: HL-60(TB) leukemia
DU-145 prostate = test system: DU-145 prostate
IGROV1 ovarian = test system: IGROV1 ovarian
SK-OV-3 ovarian = test system: SK-OV-3 ovarian
TK-10 renal = test system: TK-10 renal
CAKI-1 renal = test system: CAKI-1 renal
HCT-116 colon = test system: HCT-116 colon
MDA-N = test system: MDA-N

SMILES | TGI (SK-MEL-2 melanoma) | TGI (SF-268 CNS) | TGI (HL-60(TB) leukemia) | TGI (DU-145 prostate) | TGI (IGROV1 ovarian) | TGI (SK-OV-3 ovarian) | TGI (TK-10 renal) | TGI (CAKI-1 renal) | TGI (HCT-116 colon) | TGI (MDA-N) | GI50 (SK-MEL-2 melanoma) | GI50 (SF-268 CNS) | GI50 (HL-60(TB) leukemia) | GI50 (DU-145 prostate) | GI50 (IGROV1 ovarian) | GI50 (SK-OV-3 ovarian) | GI50 (TK-10 renal) | GI50 (CAKI-1 renal) | GI50 (HCT-116 colon)
O=[N+]([O-])c1cccc(-c2csc(N=Nc3c(O)[nH]c4ccccc34)n2)c1 | > 100 µM | 38.4 µM | 50.2 µM | 65.9 µM | 54.6 µM | > 100 µM | 33.9 µM | 47 µM | 33.2 µM | > 100 µM |  |  |  |  |  |  |  |  | 
CCC(CCCN)Nc1cc(OC)cc2cccnc12 (stereo not drawn) | > 100 µM | > 100 µM | 51.1 µM | > 100 µM | > 100 µM | > 100 µM | > 100 µM | > 100 µM | > 100 µM | > 100 µM |  |  |  |  |  |  |  |  | 
COc1ccc(N[C@H](CS(=O)c2ccc(C)cc2)c2ccc(F)cc2)cc1 (stereo partly drawn) | > 100 µM | 94.5 µM |  | > 100 µM | 47.4 µM | > 100 µM | > 100 µM | > 100 µM | > 100 µM | > 100 µM |  |  |  |  |  |  |  |  | 
Brc1ccc(N=NN2CCCCC2)cc1 | 45.4 µM | > 100 µM |  | > 100 µM | > 100 µM | > 100 µM | > 100 µM | > 100 µM | > 100 µM | > 100 µM |  |  |  |  |  |  |  |  | 
CC(C)(CN)CN | > 100 µM | > 100 µM | > 100 µM | > 100 µM | > 100 µM | > 100 µM | > 100 µM | > 100 µM | > 100 µM | > 100 µM |  |  |  |  |  |  |  |  | 
CC(=O)c1ccc(N=Nc2ccc3nonc3c2N)cc1 | > 100 µM | > 100 µM | > 100 µM | > 100 µM | > 100 µM | > 100 µM | > 100 µM | > 100 µM | > 100 µM | > 100 µM |  |  |  |  |  |  |  |  | 
CSc1c(C(=O)Nc2ccccc2)c(N)nn1-c1ccccc1 | > 100 µM | > 100 µM | > 100 µM | > 100 µM |  | > 100 µM | > 100 µM | > 100 µM | > 100 µM | > 100 µM |  |  |  |  |  |  |  |  | 
CCNC(=O)Nc1cccc(C)n1 |  | > 100 µM | > 100 µM | > 100 µM | > 100 µM | > 100 µM | > 100 µM | > 100 µM | > 100 µM | > 100 µM |  |  |  |  |  |  |  |  | 
Cc1ccc(S(=O)(=O)N/C(=C\C=C\c2ccccc2)C(=O)C(C)(C)C)cc1 | > 100 µM | > 100 µM | > 100 µM | > 100 µM | > 100 µM | > 100 µM | > 100 µM | > 100 µM | > 100 µM | > 100 µM |  |  |  |  |  |  |  |  | 
c1ccc(CNc2c3c(nc4ccccc24)CCC3)cc1 | 27.2 µM | 46.6 µM | 0.146 µM | 62.5 µM | 42.4 µM | 36.2 µM | 33.6 µM | 45.3 µM | 24.9 µM | 30.4 µM |  |  |  |  |  |  |  |  | 
CCOC(C[Se]CC(OCC)OCC)OCC | > 100 µM |  | 76.5 µM | 85.7 µM | 93.2 µM | > 100 µM | > 100 µM | > 100 µM | > 100 µM | > 100 µM |  |  |  |  |  |  |  |  | 
CCCCOC(=O)C(=O)C(CCC(=O)c1ccc(C)cc1)C(=O)C=C(C)C (stereo not drawn) | > 100 µM | > 100 µM | > 100 µM |  | > 100 µM | > 100 µM | > 100 µM | > 100 µM | > 100 µM | > 100 µM |  |  |  |  |  |  |  |  | 
c1ccc2c(-c3cnc(-c4c[nH]c5ccccc45)cn3)c[nH]c2c1 | > 100 µM | > 100 µM |  | > 100 µM | > 100 µM | > 100 µM | > 100 µM | > 100 µM | 94.2 µM | 50.3 µM |  |  |  |  |  |  |  |  | 
CN(C)C(=S)N/N=C\C=N/NC(=S)N(C)C | > 100 µM | > 20.2 µM |  | > 40.7 µM | > 100 µM | > 100 µM | > 100 µM | > 100 µM | > 100 µM | > 100 µM |  |  |  |  |  |  |  |  | 
CCC(C)[C@H](NC(=O)N[C@H](C)c1ccccc1)C(=O)OC (stereo partly drawn) | > 100 µM |  | > 100 µM | > 100 µM | > 100 µM | > 100 µM | > 100 µM | > 100 µM | > 100 µM | > 100 µM |  |  |  |  |  |  |  |  | 
CSc1nc(NC2CCCC2)c2cc[nH]c2n1 |  | > 100 µM | 47.4 µM | > 100 µM | > 100 µM | > 100 µM | > 100 µM | > 100 µM | > 100 µM | > 100 µM |  |  |  |  |  |  |  |  | 
COc1ccc(N2C=Nn3c(nc4sc(C)c(C)c4c3=O)C2)cc1 | > 100 µM | > 100 µM |  | > 100 µM | > 100 µM | > 100 µM | > 100 µM | > 100 µM | > 100 µM | > 100 µM |  |  |  |  |  |  |  |  | 
CC(=O)NCCCCNCCCNC(C)=O |  | > 100 µM | > 100 µM | > 100 µM | > 100 µM | > 100 µM | > 100 µM | > 100 µM | > 100 µM | > 100 µM |  |  |  |  |  |  |  |  | 
CN(C)c1ccc(/C=N/Nc2nc3ccccc3c(=O)n2-c2ccccc2)cc1 |  | > 100 µM | > 100 µM | > 100 µM | > 100 µM | > 100 µM | > 100 µM | > 100 µM | > 100 µM | > 100 µM |  |  |  |  |  |  |  |  | 
C=CC(=O)N1C/C(=C\c2ccc(N(C)C)cc2)C(=O)/C(=C/c2ccc(N(C)C)cc2)C1 | > 100 µM | > 100 µM |  | > 100 µM | > 100 µM |  | > 100 µM | > 100 µM | > 100 µM | 78.7 µM |  |  |  |  |  |  |  |  | 
N#CC1=C2Sc3ccccc3N2[C@H](c2ccccc2)[C@H]2COC(=O)[C@@H]12 | > 100 µM | 74.1 µM |  | > 100 µM |  | > 100 µM | > 100 µM | 52.8 µM | > 100 µM | > 100 µM |  |  |  |  |  |  |  |  | 
CC(=O)O[C@H]1CC[C@@]2(C)C(=CC[C@@H]3[C@@H]2CC[C@]2(C)C(c4cccnc4)=CC[C@@H]32)C1 | > 100 µM | > 100 µM | > 100 µM | > 100 µM | > 100 µM | 95.8 µM | > 100 µM | > 100 µM | > 100 µM |  | > 100 µM | 9.61 µM | 7.36 µM | 22.3 µM | 26.7 µM | 5.83 µM | 29.8 µM | 8.38 µM | 4.49 µM
CC(C)(NC(=O)OCc1ccccc1)C(=O)NC(Cc1ccccc1)C(=O)O (stereo not drawn) (Cbz-[Aib]-[ξF]-OH) | > 100 µM |  |  | > 100 µM | > 100 µM | > 100 µM |  | > 100 µM | > 100 µM | > 100 µM |  |  |  |  |  |  |  |  | 
